The values that follow come from patent publication US20260001876A1, “Compounds and Their Use as PDE4 Activators” (Mironid Limited, priority 2022, published 2026).

Assay [1] deals with T1, full-length human PDE4D5 (long isoform) (Homo sapiens, UniProt Q08499).
T1 construct: cell lines that stably expressed the full-length human PDE4 long isoforms and the full length human PDE4B2 short isoform; made in house; cytosol fraction of the cell lysate, not purified
Put plainly: PDE assay ([3H]cAMP hydrolysis) with PDE4D5 cell lysate cytosol fraction. The note with it: 100 μM test compound; mean % increase in counts over basal activity. It counts as biochemical. The protocol:
(§1) HEK 293 and MDCK cells (Public Health England, Cell Culture Collections) were maintained in Dulbecco's Modified Eagle's Medium (DMEM) supplemented with 10% (v/v) fetal bovine serum (FBS) (Seralab), 2 mM L-glutamine and 100 U/mL penicillin streptomycin cocktail (ThermoFisher); termed complete media. Clonal HEK 293 cell lines were maintained in complete media supplemented with 0.6 mg/ml G418 (Enzo Life Sciences). Mouse inner medullary collecting duct (m-IMCD3) cells [American Type Culture Collection (ATCC)] were maintained in media consisting of DMEM/Hams F-12 50/50 Mix (DMEM F12; Corning) supplemented with penicillin streptomycin cocktail (100 U/mL) and FBS (10% v/v) (DMEM F12-10% FBS).
(§2) Experiment 1: Measurement of Modulation of Enzyme Activity by PDE4 Long Form Activators of the Present Invention Using Full-Length Human PDE4 Isoforms; Long Forms PDE4D5, PDE4C3, PDE4B1 and Short Form PDE4B2
(§3) (Marchmont, R. J. and Houslay, M. D. Biochem. J. 187:381-92, 1980)
(§4) Exogenous expression of long form PDE4 enzymes and stable cell line generation For transient transfection of exogenous PDE4 long isoforms, HEK 293 cells were transfected with pcDNA3.1 or pDEST™ PDE4 expression vectors using Lipofectamine LTX/Plus reagent (Invitrogen) as outlined by the manufacturer.
(§5) Where stable cell lines were generated the clonal isolates were expanded to obtain cell lines that stably expressed the full-length human PDE4 long isoforms and the full length human PDE4B2 short isoform. These were called the HEK-PDE4D5, HEK-PDE4B1 and HEK-PDE4B2 cell lines, respectively.
(§6) Lysate Preparation (Using PDE4D5 as a Typical Example)
(§7) HEK-PDE4D5 cells were seeded out in 100 mm plates and incubated at 37° C. in an atmosphere of 5% CO2, 95% air. Cell lysates were prepared using KHEM buffer [50 mM KCl, 10 mM EGTA, 50 mM HEPES (pH 7.2), 1.92 mM MgCl2].
(§8) To prepare the cell lysates, the 100 mm plates containing the cells were placed on ice and washed with ice-cold PBS (phosphate buffered saline, pH 7.4). KHEM buffer (500 μL) was added to the cells. Cells were then scraped off the plate and triturated using a needle (BD Microlance™ 0.8, 40 mm). The lysed cells were then centrifuged at 2000 rpm for 10 minutes to remove cell debris and the supernatant (cell lysate containing recombinant PDE4D5) was transferred to a fresh tube and kept on ice.
(§9) Cytosol Fraction Preparation (Using PDE4D5 as a Typical Example)
(§10) The cell lysate containing recombinant PDE4D5 was transferred into a centrifuge tube and placed into an ultracentrifuge (BECKMAN COULTER) and spun at high speed (100,000g) for 30 minutes at 4° C. The cytosol fraction was then collected and its protein amount determined using a BCA protein assay.
(§11) PDE Assay—(Using PDE4D5 as a Typical Example)
(§12) PDE assays were performed in thin-walled V-bottomed 96-well plates. […]

Assay [2] concerns the target T2, full-length human PDE4B2 (short isoform) (Homo sapiens, UniProt Q07343).
T2 construct: the full length human PDE4B2 short isoform; made in house; cytosol fraction of the cell lysate, not purified
The assay is described as follows: PDE assay ([3H]cAMP hydrolysis) with PDE4B2 cell lysate cytosol fraction. The format is biochemical. Particulars: 100 μM test compound; mean % increase in counts over basal activity. How it is done:
as §1, §2, §3, §4, §5, §6, §7, §8, §9, §10, §11, §12

For assay [3], the system named is m-IMCD3 cells expressing PDE4 long forms. The assay is described as follows: cAMP levels in assay media of PGE2-stimulated m-IMCD3 3D cell culture. It counts as cell-based. The note with it: Mus musculus, mIMCD3; 3 μM test compound; compared to 100% for (DMSO + PGE2); read-out: cAMP level (% of PGE2-stimulated). The protocol:
as §1
Experiment 2: Reduction of CAMP Levels in m-IMCD3 Cell Culture Treated with PDE4 Long Form Activators
Activation of intracellular PDE4 long forms leads to a reduction of both intracellular CAMP and externalised cAMP (Omar et al., PNAS 116:13320-13329, 2019). This reduction may be measured in the cell culture media supernatant of 3D cystic cell cultures, such as in the m-IMCD3 cell cyst suppression assay described in Experiment 3.
Following the completion of the m-IMCD3 cell cyst suppression assay (Experiment 3), the CAMP levels in the assay media from individual or pooled assay wells was measured using a CAMP ELISA kit (Enzo Life Sciences) or a LANCE Ultra CAMP kit (PerkinElmer) according to the manufacturer's instructions.
Treatment with PDE4 long form activators reduced CAMP levels in PGE2-stimulated m-IMCD3 cell culture.
Background: cAMP levels reflect the balance of adenylyl cyclase and phosphodiesterase activity.

Assay [4] relates to m-IMCD3 cells. Put plainly: Inhibition of PGE2-stimulated in vitro cyst formation in m-IMCD3 cells (3D culture). The format is cell-based. Particulars: Mus musculus, mIMCD3, 144 h, mean cyst area, 100% for (DMSO + PGE2) and 0% for DMSO control, 6 days of culture; for activity at 3 µM: read-out: % Cyst area* after incubation with 3 μM test compound; for activity at 10 µM: read-out: % Cyst area* after incubation with 10 μM test compound. Summed up:
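m-IMCD3 cells in a 3D collagen I/Matrigel matrix at 37 °C, 5% CO2 were dosed 18–24 h after plating with compound (0.1% DMSO) plus 100 nM PGE2, in quadruplicate, replenished after 2–3 days. On day 6, z-stack imaging measured mean cyst area, normalised to DMSO+PGE2 (100%) and DMSO alone (0%).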

T2 sequence (Q07343 1-564 isoform Q07343-2): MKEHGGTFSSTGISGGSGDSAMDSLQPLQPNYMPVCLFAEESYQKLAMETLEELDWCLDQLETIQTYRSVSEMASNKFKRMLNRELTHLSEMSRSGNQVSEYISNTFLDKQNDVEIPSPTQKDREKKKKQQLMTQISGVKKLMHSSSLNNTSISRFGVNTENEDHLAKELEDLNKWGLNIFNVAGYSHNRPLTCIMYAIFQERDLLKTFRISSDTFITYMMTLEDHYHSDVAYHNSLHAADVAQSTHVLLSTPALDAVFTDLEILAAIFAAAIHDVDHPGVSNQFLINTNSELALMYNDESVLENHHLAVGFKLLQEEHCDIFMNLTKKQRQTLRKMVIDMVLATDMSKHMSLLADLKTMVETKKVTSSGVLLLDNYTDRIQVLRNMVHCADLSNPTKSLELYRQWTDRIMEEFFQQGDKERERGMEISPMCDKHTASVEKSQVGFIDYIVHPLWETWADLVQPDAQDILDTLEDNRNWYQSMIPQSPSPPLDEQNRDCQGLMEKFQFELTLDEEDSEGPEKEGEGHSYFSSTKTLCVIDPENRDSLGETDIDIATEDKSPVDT
T1 sequence (Q08499 1-745 isoform Q08499-6): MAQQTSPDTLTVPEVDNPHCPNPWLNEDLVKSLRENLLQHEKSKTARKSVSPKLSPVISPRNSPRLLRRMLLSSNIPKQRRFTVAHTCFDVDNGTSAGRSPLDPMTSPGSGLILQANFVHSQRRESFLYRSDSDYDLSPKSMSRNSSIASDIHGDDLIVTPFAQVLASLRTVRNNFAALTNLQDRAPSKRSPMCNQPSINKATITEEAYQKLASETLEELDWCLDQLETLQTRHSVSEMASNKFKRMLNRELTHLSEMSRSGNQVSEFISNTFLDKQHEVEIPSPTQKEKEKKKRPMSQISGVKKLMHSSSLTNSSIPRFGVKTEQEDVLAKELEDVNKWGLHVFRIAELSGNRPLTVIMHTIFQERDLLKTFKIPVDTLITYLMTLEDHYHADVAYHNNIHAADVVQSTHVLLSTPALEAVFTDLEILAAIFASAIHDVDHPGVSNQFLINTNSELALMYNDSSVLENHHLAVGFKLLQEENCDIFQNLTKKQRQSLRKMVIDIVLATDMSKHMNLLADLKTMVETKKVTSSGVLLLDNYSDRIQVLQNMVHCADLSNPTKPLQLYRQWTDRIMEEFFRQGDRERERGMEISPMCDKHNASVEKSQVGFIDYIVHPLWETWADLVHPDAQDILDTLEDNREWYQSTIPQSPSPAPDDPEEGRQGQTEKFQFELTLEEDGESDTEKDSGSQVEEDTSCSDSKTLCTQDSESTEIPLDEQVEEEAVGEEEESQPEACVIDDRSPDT

On to `O=C(COc1ccc(F)cc1)N1CCc2nc(N3C4CCC3CNC4)ccc2C1` [Example 46, 1-(2-(3,8-diazabicyclo[3.2.1]octan-8-yl)-7,8-dihydro-1,6-naphthyridin-6(5H)-yl)-2-(4-fluorophenoxy)ethan-1-one], for which the “% increase in PDE4D5 (long isoform) activity at 100 μM* (%)” value (“% increase in PDE4D5” below) in assay [1] was found to be 94%. The “% increase in PDE4B2 (short isoform) activity at 100 μM*” value (from here on “% increase in PDE4B2”) in assay [2] amounted to 6%. In assay [3], the activity at 3 µM was 42%.

Take `O=C(Cc1ccc(F)cc1)N1CCc2nc(N3C4CCC3CNC4)ncc2C1` [Example 139, 1-(2-(3,8-diazabicyclo[3.2.1]octan-8-yl)-7,8-dihydropyrido[4,3-d]pyrimidin-6(5H)-yl)-2-(4-fluorophenyl)ethan-1-one]: in assay [1], the “% increase in PDE4D5” value is on record as 28%. The “% increase in PDE4B2” value in assay [2] is −1%. Further, in assay [4], the activity at 3 µM was 1%.

Take `O=C(Cc1ccc(F)cc1)N1CCc2nc(N3C4CCC3CNC4)ccc2C1` [Example 48, 1-(2-(3,8-diazabicyclo[3.2.1]octan-8-yl)-7,8-dihydro-1,6-naphthyridin-6(5H)-yl)-2-(4-fluorophenyl)ethan-1-one]: the “% increase in PDE4D5” value in assay [1] is reported as 31%. Further, the “% increase in PDE4B2” value in assay [2] was −9%. Further, the activity at 3 µM in assay [3] worked out at 57%. Also, in assay [4], the activity at 10 µM is -5%.

`O=C(CC1CCCC1)N1CCc2nc(N3CC4CCCC(C3)N4)ccc2C1` [Example 152, 1-(2-(3,9-diazabicyclo[3.3.1]nonan-3-yl)-7,8-dihydro-1,6-naphthyridin-6(5H)-yl)-2-cyclopentylethan-1-one]: the activity at 3 µM was 41% in assay [3] and -6% in assay [4].

For the compound `O=C(N[C@H]1CCOc2ccccc21)N1CCc2nc(N3C4CCC3CNC4)ccc2C1` [Example 166, 2-(3,8-diazabicyclo[3.2.1]octan-8-yl)-N—((S)-chroman-4-yl)-7,8-dihydro-1,6-naphthyridine-6(5H)-carboxamide], the activity at 3 µM in assay [3] was 35%; in assay [4] it was 3%.

On to `O=C(CC1CCCC1)N1CCc2nc(N3CCN4CCC[C@H]4C3)ccc2C1` [Example 113, (S)-2-cyclopentyl-1-(2-(hexahydropyrrolo[1,2-a]pyrazin-2 (1H)-yl)-7,8-dihydro-1,6-naphthyridin-6(5H)-yl)ethan-1-one], for which the activity at 3 µM in assay [3] was determined as 63%. The activity at 10 µM in assay [4] is -4%.

With `O=C(CC1CCCC1)N1CCc2nc(C3CCN(CCO)CC3)ccc2C1` [Example 115, 2-cyclopentyl-1-(2-(1-(2-hydroxyethyl)piperidin-4-yl)-7,8-dihydro-1,6-naphthyridin-6(5H)-yl)ethan-1-one], in assay [3], the activity at 3 µM came to 32%. Further, in assay [4], the activity at 10 µM was -3%.

As for `CC(C)(C)CC(=O)N1CCc2nc(N3C4CCC3CNC4)ccc2C1` [Example 42, 1-(2-(3,8-diazabicyclo[3.2.1]octan-8-yl)-7,8-dihydro-1,6-naphthyridin-6(5H)-yl)-3,3-dimethylbutan-1-one], the activity at 3 µM in assay [3] worked out at 28%. Further, the activity at 10 µM in assay [4] was 0%.

For the compound `CCN1CC2CCC(C1)N2c1ccc2c(n1)CCN(S(=O)(=O)Cc1ccc(F)cc1)C2` [Example 159, 2-(3-ethyl-3,8-diazabicyclo[3.2.1]octan-8-yl)-6-((4-fluorobenzyl)sulfonyl)-5,6,7,8-tetrahydro-1,6-naphthyridine], in assay [1], the “% increase in PDE4D5” value is given as 35%. Also, the “% increase in PDE4B2” value in assay [2] worked out at 2%. For the same compound, in assay [4], the activity at 3 µM was found to be 1%.

As to `N#Cc1ccc(CC(=O)N2CCc3nc(N4C5CCC4CNC5)ncc3C2)cc1` [Example 136, 4-(2-(2-(3,8-diazabicyclo[3.2.1]octan-8-yl)-7,8-dihydropyrido[4,3-d]pyrimidin-6(5H)-yl)-2-oxoethyl)benzonitrile], the activity at 3 µM in assay [3] turned out to be 38%; in assay [4], 1%.

Consider `CCN1CCN(c2ccc3c(n2)CCN(C(=O)CC(C)(C)C)C3)CC1` [Example 150, 1-(2-(4-ethylpiperazin-1-yl)-7,8-dihydro-1,6-naphthyridin-6(5H)-yl)-3,3-dimethylbutan-1-one], for which the activity at 3 µM in assay [3] is 49%; in assay [4], -1%.
